This is an account of results in PMC2834671, “Differential activity of innate defense antimicrobial peptides against Nocardia species” (BMC Microbiology, 2010).

Positions of bridges follow the written chain, without caps; N, C: chain ends. Residues, ends and D or L forms follow the SMILES beside them. No end group written: not given here.

One assay concerns N. farcinica ATCC 3318. Description: Colony forming unit (CFU) assay against N. farcinica. The assay is classed as cell-based, Nocardia farcinica. Conditions: for LD90: lowest concentration leading to 90% reduction of CFU, 1 × 10^7 CFU/ml in 10 mM sodium phosphate buffer pH 7.4 + 1% MHB, means of at least four (levofloxacin, HNP 1-3, LL-37, hBD-3) or two (indolicidin, LAP, TAP) independent experiments. The method, then: (§1) Four strains of the genus Nocardia were investigated: Nocardia farcinica (ATCC 3318), Nocardia nova (ATCC 33726), Nocardia asteroides (ATCC 19247) and Nocardia brasiliensis (ATCC 19296). Strains were grown on Columbia blood agar for at least 72 hours at 37°C. Then 30 ml of Mueller-Hinton-broth (MHB) supplemented with 1% Tween 80 (Serva, Heidelberg, Germany) was inoculated with one loop of bacteria scraped off the agar plates. MHB was incubated in a shake incubator (220 rpm at 37°C). 10 ml of the culture was transferred to a 50 ml tube which contained 1 mm glass beads (BioSpec Products, Bartlesville, USA). After vortexing for 10-15 seconds a homogenous suspension could be gained. A few millilitres of the suspension were used to inoculate another 50 ml of MHB (also supplemented with 1% Tween 80). Cultures were incubated until mid-logarithmic phase was reached. Incubation times were different for each Nocardia species (N. farcinica 12 h, N. nova 24 h, N. asteroides 16 h, N. brasiliensis 72 h).
(§2) A colony forming unit (CFU) assay was established and performed to test AMP susceptibility. Mid-logarithmic growth phase cultures were washed twice in 10 mM sodium phosphate buffer (ph 7.4). A standard inoculum of 1 × 10^7CFU/ml in 10 mM sodium phosphate buffer supplemented with 1% MHB was prepared. 80 μl of the standard inoculum were incubated with 20 μl of the respective concentrations of the antimicrobial agents in the shake incubator at 37°C for 12 h (N. farcinica) to 16 h (N. nova, N. asteroides and N. brasiliensis). Incubation was carried out in 2 ml tubes (Eppendorf, Hamburg, Germany) which were occluded by LidBacs (Eppendorf, Hamburg, Germany) to avoid contamination and provide constant aerobic conditions. After incubation serial dilutions were plated on Mueller-Hinton agar plates and visible colonies were counted after 48-72 hours of incubation at 37°C. Killing was expressed in percentage of bacteria that were killed by incubation with respective peptide concentrations compared to incubation with solvent of the antibacterial substance (0,01% acetic acid or water). LD90 denotes the lowest peptide concentration leading to a =90% reduction of CFU counts. […] Killing activity (CFU counts after incubation with solvent vs. CFU counts after incubation with highest concentration of AMPs or levofloxacin) was analysed by Student's t-test. A p-value < 0.05 was considered significant.

For the next assay, the system named is N. nova ATCC 33726. Description: Colony forming unit (CFU) assay against N. nova. It counts as cell-based, Nocardia nova. Conditions: for antinocardial activity (in words): CFU assay; for antinocardial activity (in words) / LD90: 16 h; for LD90: lowest concentration leading to 90% reduction of CFU, 1 × 10^7 CFU/ml in 10 mM sodium phosphate buffer pH 7.4 + 1% MHB, 37°C, means of at least four or two (indolicidin) independent experiments; for killing/CFU reduction in percent ± SD: ATCC 33726, 16 h. The procedure:
as §1, §2

The subject of a further assay is N. asteroides ATCC 19247. Description: Colony forming unit (CFU) assay against N. asteroides. It counts as cell-based, Nocardia asteroides. The following applies: for antinocardial activity (in words): CFU assay; for LD90: lowest concentration leading to 90% reduction of CFU, 1 × 10^7 CFU/ml in 10 mM sodium phosphate buffer pH 7.4 + 1% MHB, means of at least four or two (indolicidin) independent experiments. The procedure: as §1, §2

Assay [1] concerns N. brasiliensis ATCC 19296. Description: Colony forming unit (CFU) assay against N. brasiliensis. The assay is classed as cell-based, Nocardia brasiliensis. The following applies: for antinocardial activity (in words) / growth of N. brasiliensis after incubation (in words): CFU assay; for antinocardial activity (in words): concentrations up to 64 μg/ml; for growth of N. brasiliensis after incubation (in words): data not shown; for LD90: lowest concentration leading to 90% reduction of CFU, 1 × 10^7 CFU/ml in 10 mM sodium phosphate buffer pH 7.4 + 1% MHB, means of at least four or two (indolicidin, LAP, TAP) independent experiments. The method, then:
as §1, §2

[2] abbreviates: at the LD90 concentration, 12 h, 37°C, mean ± SD of at least four or two (indolicidin, LAP, TAP) independent experiments.
[3] abbreviates: at the LD90 concentration, 16 h, 37°C, mean ± SD of at least four or two (indolicidin) independent experiments.

In turn, `CC[C@H](C)[C@H](NC(=O)[C@H](CCCCN)NC(=O)[C@H](CCC(=O)O)NC(=O)[C@H](CCCCN)NC(=O)[C@H](CO)NC(=O)[C@H](CCCCN)NC(=O)[C@H](CCCNC(=N)N)NC(=O)[C@H](Cc1ccccc1)NC(=O)[C@H](Cc1ccccc1)NC(=O)[C@H](CC(=O)O)NC(=O)CNC(=O)[C@H](CC(C)C)NC(=O)[C@@H](N)CC(C)C)C(=O)NCC(=O)N[C@@H](CCCCN)C(=O)N[C@@H](CCC(=O)O)C(=O)N[C@@H](Cc1ccccc1)C(=O)N[C@@H](CCCCN)C(=O)N[C@@H](CCCNC(=N)N)C(=O)N[C@H](C(=O)N[C@H](C(=O)N[C@@H](CCC(N)=O)C(=O)N[C@@H](CCCNC(=N)N)C(=O)N[C@H](C(=O)N[C@@H](CCCCN)C(=O)N[C@@H](CC(=O)O)C(=O)N[C@@H](Cc1ccccc1)C(=O)N[C@@H](CC(C)C)C(=O)N[C@@H](CCCNC(=N)N)C(=O)N[C@@H](CC(N)=O)C(=O)N[C@@H](CC(C)C)C(=O)N[C@H](C(=O)N1CCC[C@H]1C(=O)N[C@@H](CCCNC(=N)N)C(=O)N[C@H](C(=O)N[C@@H](CCC(=O)O)C(=O)N[C@@H](CO)C(=O)O)[C@@H](C)O)C(C)C)[C@@H](C)CC)C(C)C)[C@@H](C)CC` [LL-37] came in with a CFU reduction in the assay with N. farcinica ATCC 3318 (16 μg/ml peptide alone, single assay (Figure 2)) of 68.5%. Moreover, the “antinocardial activity (in words)” value in the assay with N. nova ATCC 33726 is “more potent against N. nova than levofloxacin”; in the assay on N. asteroides ATCC 19247 (16 h), “did not show antinocardial activity”; in assay [1] (16 h), “resistant”. Also, the LD90 in the assay with N. nova ATCC 33726 is 32 µg/mL; in the assay with N. asteroides ATCC 19247 (37°C, 16 h), greater than 64 µg/mL; in assay [1] (37°C, 16 h) it was greater than 64 µg/mL. Besides, the “growth of N. brasiliensis after incubation (in words)” value (“growth of N. brasiliensis” for short) in assay [1] (16 h) is given as “stronger growth”.

On to `C[C@H]1COc2c(N3CCN(C)CC3)c(F)cc3c(=O)c(C(=O)O)cn1c23` [Levofloxacin, reference compound], for which the “antinocardial activity (in words)” value in the assay with N. farcinica ATCC 3318 (CFU assay, 12 h) was “dose-dependent activity”; with N. nova ATCC 33726 it was “dose-dependent activity”; with N. asteroides ATCC 19247 (16 h) it was “dose-dependent activity”; in assay [1] (16 h) it was “dose-dependent activity”. In addition, the “killing/CFU reduction in percent ± SD” value was 92.3 ± 3.8% in the assay on N. farcinica ATCC 3318 (setting [2]), 92.6 ± 3.8% in the assay on N. asteroides ATCC 19247 (setting [3]) and 96.6 ± 2.2% in assay [1] (setting [3]). Besides, the LD90 is 8 µg/mL in the assay on N. farcinica ATCC 3318 (37°C, 12 h); greater than 32 µg/mL in the assay with N. nova ATCC 33726; 8 µg/mL with N. asteroides ATCC 19247 (37°C, 16 h); 32 µg/mL in assay [1] (37°C, 16 h).

Regarding `CC[C@H](C)[C@@H]1NC(=O)CNC(=O)[C@H](CCCCN)NC(=O)[C@H](CC(N)=O)NC(=O)[C@H](CCCNC(=N)N)NC(=O)[C@H](C(C)C)NC(=O)[C@@H](NC(=O)[C@H](CO)NC(=O)[C@@H](NC(=O)[C@@H]2CCCN2C(=O)[C@@H](N)CC(N)=O)C(C)C)CSSC[C@@H]2NC(=O)[C@H](CCCCN)NC(=O)[C@H](C(C)C)NC(=O)[C@H](C)NC(=O)[C@H](CCCNC(=N)N)NC(=O)CNC(=O)[C@H](C(C)C)NC(=O)[C@@H]3CSSC[C@H](NC1=O)C(=O)N[C@@H](C(C)C)C(=O)N1CCC[C@H]1C(=O)N[C@@H]([C@@H](C)CC)C(=O)N[C@@H](CCCNC(=N)N)C(=O)N[C@@H](CSSC[C@@H](C(=O)N[C@@H](CCCNC(=N)N)C(=O)N[C@@H](CCCCN)C(=O)N[C@@H](CCCCN)C(=O)O)NC2=O)C(=O)N1CCC[C@H]1C(=O)NCC(=O)N[C@@H](CO)C(=O)N[C@@H](CCSC)C(=O)N[C@@H](CCCCN)C(=O)N[C@@H](CCC(N)=O)C(=O)N[C@@H]([C@@H](C)CC)C(=O)NCC(=O)N[C@@H]([C@@H](C)O)C(=O)N3` [TAP] (H-NPVSCVRNKGICVPIRCPGSMKQIGTCVGRAVKCCRKK-OH; disulfide 5-34, 12-27, 17-35 (inferred); N-terminus and C-terminus assumed), in the assay with N. farcinica ATCC 3318 (setting [2]), the “killing/CFU reduction in percent ± SD” value is given as 94 ± 5.1%. In addition, in the assay with N. farcinica ATCC 3318 (37°C, 12 h), the LD90 is 32 µg/mL. For the same compound, in assay [1] (16 h), the “antinocardial activity (in words)” value is given as “resistant” and the “growth of N. brasiliensis” value was “pronounced growth”.

Turning to `CC[C@H](C)[C@H](N)C(=O)N[C@@H](CC(C)C)C(=O)N1CCC[C@H]1C(=O)N[C@@H](Cc1c[nH]c2ccccc12)C(=O)N[C@@H](CCCCN)C(=O)N[C@@H](Cc1c[nH]c2ccccc12)C(=O)N1CCC[C@H]1C(=O)N[C@@H](Cc1c[nH]c2ccccc12)C(=O)N[C@@H](Cc1c[nH]c2ccccc12)C(=O)N1CCC[C@H]1C(=O)N[C@@H](Cc1c[nH]c2ccccc12)C(=O)N[C@@H](CCCNC(=N)N)C(=O)N[C@@H](CCCNC(=N)N)C(N)=O` [indolicidin], the “killing/CFU reduction in percent ± SD” value with N. farcinica ATCC 3318 (ATCC 3318, 12 h) is given as 96.7 ± 1.7%; in the assay on N. nova ATCC 33726, 90.5 ± 3.4%; in the assay with N. asteroides ATCC 19247 (ATCC 19247, 16 h), 99.1 ± 0.6%; in assay [1] (ATCC 19296, 16 h), 92.9 ± 2.1%. For the same compound, the LD90 worked out at 16 µg/mL in the assay on N. farcinica ATCC 3318 (37°C, 12 h); 8 µg/mL in the assay on N. nova ATCC 33726; 64 µg/mL with N. asteroides ATCC 19247 (37°C, 16 h); 64 µg/mL in assay [1] (37°C, 16 h).

For the compound “GIINTLQKYYCRVRGGRCAVLSCLPKEEQIGKCSTRGRKCCRRKK (disulfide 11-40, 18-33, 23-41 (inferred)) [hBD-3]”, the “killing/CFU reduction in percent ± SD” value in the assay with N. farcinica ATCC 3318 (ATCC 3318, 12 h) was 92.5 ± 5.3%; in the assay on N. nova ATCC 33726, 95.2 ± 1.7%. The LD90 in the assay with N. farcinica ATCC 3318 (37°C, 12 h) is 16 µg/mL; in the assay on N. nova ATCC 33726 it was 16 µg/mL; with N. asteroides ATCC 19247 (37°C, 16 h), greater than 64 µg/mL; in assay [1] (37°C, 16 h) it was greater than 64 µg/mL. The “antinocardial activity (in words)” value in the assay with N. nova ATCC 33726 is reported as “more potent against N. nova than levofloxacin”; in the assay on N. asteroides ATCC 19247 (16 h) it was “did not show antinocardial activity”; in assay [1] (16 h), “resistant”. In addition, the “growth of N. brasiliensis” value in assay [1] (16 h) is “stronger growth”.

Regarding “LAP: bovine β-defensin lingual antimicrobial peptide, synthesized and oxidatively folded (VRNSQSCRRNKGICVPIRCPGSMRQIGTCLGAQVKCCRRK; disulfide (positions not given here); UniProt Q28880 25-64, looked up)”, the “killing/CFU reduction in percent ± SD” value in the assay on N. farcinica ATCC 3318 (setting [2]) worked out at 92.9 ± 7.1%. Also, the LD90 in the assay on N. farcinica ATCC 3318 (37°C, 12 h) came to 16 µg/mL. In assay [1] (16 h), the “antinocardial activity (in words)” value is recorded as “resistant” and the “growth of N. brasiliensis” value was “pronounced growth”. Moreover, the LD90 in assay [1] (37°C, 16 h) was greater than 64 µg/mL.
